Measured values: DBAASP
Values after ≈ are worked out from the molar mass of the structure shown. Values belong to the compound of their own block, whether it stands above or below them.

What was measured:
Experiment in all cases: ≥ marks a high value that may be exact or a test limit, other limits are often not marked, values filed in µg/mL are converted to µM
[1] = system: Escherichia coli ATCC 25922
[2] = system: Staphylococcus aureus FDA 209P
Escherichia coli 780 = system: Escherichia coli 780
[3] = system: Staphylococcus aureus ATCC 29213
[4] = system: Bacillus subtilis ATCC 23857
[5] = system: Acinetobacter baumannii 97830
[6] = system: Pseudomonas aeruginosa 50
[7] = system: Pseudomonas aeruginosa ATCC 9027
[8] = system: Pseudomonas aeruginosa ATCC 27853
[9] = system: Klebsiella pneumoniae ATCC 700603
[10] = system: Staphylococcus epidermidis ATCC 12228
Staphylococcus aureus 75 = system: Staphylococcus aureus 75
[11] = system: Acinetobacter baumannii 9931
[12] = system: Staphylococcus aureus 113
[13] = system: Acinetobacter baumannii ATCC 19606
Escherichia coli 804 = system: Escherichia coli 804
[14] = system: Pseudomonas aeruginosa 73
[15] = system: Acinetobacter baumannii b-04
[16] = system: Acinetobacter baumannii b-02
[17] = system: Acinetobacter baumannii b-03
Pseudomonas aeruginosa = system: Pseudomonas aeruginosa
[18] = system: Acinetobacter baumannii b-01
[19] = system: Escherichia coli ATCC 35150
[20] = system: Staphylococcus aureus DSM 2569
[21] = system: Salmonella enterica subsp. enterica serovar Typhimurium DSM 554
[22] = system: Salmonella typhimurium DSM 19587
[23] = system: Pseudomonas fluorescens DSM 50124
Listeria monocytogenes = system: Listeria monocytogenes
[24] = system: Staphylococcus aureus ATCC 3300
[25] = system: Escherichia coli NCTC 13452
Bacillus cereus DSM 4222 = system: Bacillus cereus DSM 4222
Bacillus cereus DSM 4312 = system: Bacillus cereus DSM 4312
[26] = system: Clostridium perfringens DSM 11784
[27] = system: Escherichia coli NEB5alpha
[28] = system: Pseudomonas putida DSM 291
[29] = system: Bacillus subtilis ATCC 6051
[30] = system: Clostridium perfringens ATCC 13124
[31] = system: Listeria monocytogenes SLCC 5581

MIC [1]: 1.1 µM (≈ 4.24 µg/mL)
MIC [2]: 2.6 µM (≈ 10 µg/mL)
Compound: CC[C@H](C)[C@H](NC(=O)[C@H](CCSC)NC(=O)[C@H](CCCCN)NC(=O)[C@@H](NC(=O)[C@H](C)NC(=O)CNC(=O)[C@H](CCCCN)NC(=O)[C@@H](NC(=O)[C@H](CC(C)C)NC(=O)[C@@H](NC(=O)[C@H](Cc1ccccc1)NC(=O)[C@H](CC(C)C)NC(=O)CN)[C@@H](C)O)[C@@H](C)CC)C(C)C)C(=O)NCC(=O)N[C@@H](CCCCN)C(=O)N[C@H](C(=O)N[C@H](C(=O)N[C@@H](C)C(=O)N[C@@H](CCCCN)C(=O)N[C@@H](CCC(=O)O)C(=O)N[C@@H](C)C(=O)NCC(=O)N[C@@H](CCCCN)C(=O)N[C@H](C(=O)NCC(=O)N[C@@H](CC(C)C)C(=O)N[C@@H](CCC(=O)O)C(=O)N[C@@H](CC(C)C)C(=O)N[C@@H](CCSC)C(=O)N[C@@H](C)C(=O)N[C@H]1CSSC[C@@H](C(=O)O)NC(=O)[C@H](CCC(N)=O)NC(=O)[C@H](CC(N)=O)NC(=O)[C@H]([C@@H](C)O)NC(=O)[C@H](C(C)C)NC(=O)[C@H](CCCCN)NC1=O)[C@@H](C)O)C(C)C)[C@@H](C)O [GLFTLIKGAVKMIGKTVAKEAGKTGLELMACKVTNQC]

MIC (Escherichia coli 780): ≥ 32 µM
MIC [3]: 2 µM (≈ 2.63 µg/mL)
MIC [4]: 4 µM (≈ 5.26 µg/mL)
MIC [5]: ≥ 128 µM
MIC [6]: ≥ 128 µM
MIC [7]: 128 µM (≈ 168 µg/mL)
MIC [8]: > 128 µM
MIC [9]: 128 µM (≈ 168 µg/mL)
MIC [10]: 4 µM (≈ 5.26 µg/mL)
MIC (Staphylococcus aureus 75): 8 µM (≈ 10.5 µg/mL)
MIC [11]: ≥ 64 µM
MIC [12]: 8 µM (≈ 10.5 µg/mL)
MIC [13]: 128 µM (≈ 168 µg/mL)
MIC (Escherichia coli 804): ≥ 32 µM
MIC [14]: ≥ 128 µM
Compound: NCC(=O)N[C@@H](CCCN=C(N)N)C(=O)N[C@@H](CCCN=C(N)N)C(=O)N[C@@H](Cc1c[nH]c2ccccc12)C(=O)N[C@@H](Cc1c[nH]c2ccccc12)C(=O)N[C@@H](Cc1c[nH]c2ccccc12)C(=O)N[C@@H](CCCN=C(N)N)C(=O)N[C@@H](CCCN=C(N)N)C(=O)NCC(N)=O [GRRWWWRRG]

MIC [15]: 1.27 µM (≈ 3.12 µg/mL)
MIC [16]: 2.55 µM (≈ 6.25 µg/mL)
MIC [17]: 2.55 µM (≈ 6.25 µg/mL)
MIC (Pseudomonas aeruginosa): 1.27 µM (≈ 3.12 µg/mL)
MIC [18]: 1.27 µM (≈ 3.12 µg/mL)
Compound: CC[C@H](C)[C@H](NC(=O)[C@H](Cc1ccccc1)NC(=O)[C@H](CO)NC(=O)[C@H](CCCCN)NC(=O)[C@H](Cc1c[nH]c2ccccc12)NC(=O)[C@@H](N)CCCCN)C(=O)N[C@@H](CCCCN)C(=O)N[C@@H](CCCCN)C(=O)N[C@@H](CC(C)C)C(=O)N[C@H](C(=O)N[C@@H](CO)C(=O)N[C@@H](CCCCN)C(=O)N[C@@H](Cc1ccccc1)C(=O)N[C@@H](CC(C)C)C(=O)N[C@@H](Cc1cnc[nH]1)C(=O)N[C@@H](CO)C(=O)N[C@@H](C)C(=O)N[C@@H](CCCCN)C(=O)N[C@@H](CCCCN)C(=O)N[C@@H](Cc1ccccc1)C(N)=O)[C@@H](C)O [KWKSFIKKLTSKFLHSAKKF]

MIC [19]: ≥ 500 µM
MIC [20]: ≥ 500 µM
MIC [21]: ≥ 1000 µM
MIC [22]: ≥ 1000 µM
MIC [23]: ≥ 500 µM
MIC (Listeria monocytogenes): ≥ 250 µM
MIC [24]: ≥ 500 µM
MIC [25]: ≥ 125 µM
MIC (Bacillus cereus DSM 4222): ≥ 1000 µM
MIC (Bacillus cereus DSM 4312): ≥ 1000 µM
MIC [26]: ≥ 1000 µM
MIC [27]: ≥ 62.5 µM
MIC [28]: ≥ 125 µM
MIC [29]: 15.6 µM (≈ 33.1 µg/mL)
MIC [30]: ≥ 125 µM
MIC [31]: ≥ 500 µM
Compound: CC[C@H](C)[C@H](NC(=O)[C@@H](N)CCCN=C(N)N)C(=O)N[C@@H](CCCCN)C(=O)N[C@H](C(=O)N[C@H](C(=O)N[C@H](C(=O)N[C@@H](CO)C(=O)N[C@@H](Cc1ccccc1)C(=O)N[C@@H](CC(=O)O)C(=O)N[C@@H](CC(C)C)C(=O)N1CCC[C@H]1C(=O)N[C@@H](C)C(=O)N[C@@H](CC(C)C)C(=O)N[C@@H](CCCN=C(N)N)C(=O)N[C@@H](Cc1ccccc1)C(=O)N[C@@H](CC(C)C)C(=O)N[C@@H](CCCCN)C(=O)N[C@@H](CC(C)C)C(=O)O)[C@@H](C)O)C(C)C)[C@@H](C)O [RIKTVTSFDLPALRFLKL]
